Results on 6 compounds are retold here after PubChem BioAssay (NCI).

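Results reflect a 48-hour exposure of cells in 96-well plates to compound at five concentrations. TGI is the concentration that stops growth completely.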

Assay in all cases: inhibition of tumour cell growth, NCI panel, 48 h
Experiment [1] relates to KM12 colon.
The subject of experiment [2] is MDA-MB-435.
Experiment [3] deals with DU-145 prostate.
For experiment [4], the system named is NCI-H460 lung.
Experiment [5] deals with TK-10 renal.
Experiment [6] has as its system SF-539 CNS.
Experiment [7] relates to RPMI-8226 leukemia.
In experiment [8] the test system is NCI/ADR-RES ovarian.
The subject of experiment [9] is HL-60(TB) leukemia.
The test system of experiment [10] is UACC-257 melanoma.
For experiment [11], the system named is HCT-15 colon.
Experiment [12] relates to HCT-116 colon.
Experiment [13] relates to NCI-H226 lung.
Experiment [14] deals with BT-549 breast.
Experiment [15] has as its system CAKI-1 renal.
Experiment [16] deals with OVCAR-3 ovarian.
Experiment [17] deals with MDA-N.
Experiment [18] deals with HT29 colon.
Experiment [19] deals with COLO 205 colon.
The subject of experiment [20] is SK-MEL-2 melanoma.

Turning to `O=C1CC(CC(O)[C@@H]2CCCC[C@@H]2O)CC(=O)N1c1ccccc1` (some centres not stated), the TGI in experiment [1], in experiment [2], in [3], in experiment [4], in [5] and in [6] was more than 100 µM each time. Besides, the TGI in experiment [7], in experiment [8], in experiment [9], in experiment [10], in experiment [11] and in experiment [12] was more than 100 µM each time. The TGI in experiment [13], in experiment [14], in [15], in experiment [16], in [17] and in experiment [18] was more than 100 µM throughout.
Take `CSc1nc(C)c2c(n1)SCC2`: the TGI in [1], in [2], in experiment [3], in experiment [4], in experiment [5] and in experiment [6] was more than 10 µM in each case. In addition, the TGI in experiment [7], in [8], in experiment [9], in [10], in experiment [11] and in [12] was more than 10 µM throughout. Besides, the TGI in experiment [13], in experiment [14], in experiment [15], in experiment [16], in [19] and in experiment [17] was more than 10 µM throughout. In [18], this compound registered a TGI of more than 10 µM.
Regarding `COc1cc2c[n+](C)c3c4cc5c(cc4ccc3c2cc1OC)OCO5`, the TGI in experiment [1] is 7.21 µM; in experiment [2], more than 100 µM; in [3] it was 9.19 µM; in experiment [4] it was 14.7 µM; in experiment [5], more than 93.1 µM; in [6], 5.32 µM. The TGI in experiment [7] was 23.5 µM; in experiment [8], more than 100 µM; in experiment [9], 22.5 µM; in [20], 6.97 µM; in experiment [10], more than 59.8 µM; in [11], more than 100 µM. Besides, the TGI was 18.9 µM in [12]; 15.3 µM in experiment [13]; 78.4 µM in experiment [14]; 9.39 µM in experiment [16]; 4.48 µM in experiment [19]; more than 100 µM in experiment [17]. Moreover, the TGI in [18] turned out to be 4.6 µM.
As for `COc1ccc(Nc2nnc(CCCCCCCCc3nnc(Nc4ccc(OC)cc4)o3)o2)cc1`, the TGI in experiment [1], in [2], in experiment [3], in [4], in experiment [5] and in experiment [6] was more than 100 µM each time. Also, the TGI in experiment [8], in experiment [9], in experiment [20], in [10], in experiment [11] and in [12] was more than 100 µM throughout. For the same compound, the TGI in experiment [13], in [14], in experiment [15], in [16], in [19] and in experiment [17] was more than 100 µM throughout. The compound also displayed a TGI in [18] of more than 100 µM.
Take `CN(C)C=Nc1cccc2nsnc12`: the TGI in [2], in experiment [3], in experiment [5], in [6], in experiment [7] and in experiment [8] was more than 100 µM each time. Besides, the TGI in [9], in experiment [20], in [10], in experiment [11], in [12] and in [13] was more than 100 µM in each case. Also, the TGI in [14], in experiment [15], in experiment [16], in [19], in experiment [17] and in experiment [18] was more than 100 µM each time.
For `O=C(c1cc(Cl)cc(Cl)c1)N(C(=O)N1CCN(c2ccccc2)CC1)c1ccccc1`, the TGI in experiment [1] is more than 100 µM; in experiment [2], 48.5 µM; in experiment [3] it was more than 100 µM; in experiment [4], more than 100 µM; in [5], more than 100 µM; in experiment [6] it was more than 100 µM. Besides, the TGI in [8], in experiment [9], in experiment [20], in experiment [10], in experiment [11] and in experiment [12] was more than 100 µM throughout. The TGI in experiment [13] is more than 100 µM; in experiment [14] it was more than 100 µM; in [15], more than 100 µM; in experiment [16] it was more than 100 µM; in [19] it was 39.6 µM; in experiment [17] it was 30.3 µM. Besides, in experiment [18], the TGI is more than 100 µM.
